Source: US9663764B2, “Generation of cardiomyocytes from human pluripotent stem cells” (Wisconsin Alumni Research Foundation, priority 2011, dated 2017)

Legend:
Assay type in all cases: cell-based, human
[1] = tested on: TCF/LEF promoter activity in H9-7TGP cells; experiment: 7TGP TCF/LEF promoter-reporter (GFP) assay after CH treatment
Excerpt: In order to probe the activation of canonical Wnt/β-catenin signaling during hPS cell specification to cardiomyocytes, the inventors generated a series of promoter-reporter cell lines in H1 and H9 hESC, and 19-9-11 human iPSC lines. These reporter lines, integrated with a lentiviral 7TGP vector, express GFP under control of a consensus TCF/LEF binding sequence promoter which reports β-catenin activation (FIG. 2A) (Fuerer and Nusse, PLoS One 5:e9370 (2010)). […] Approximately 50% of H9-7TGP cells expressed GFP at 4 days post-addition of 15 μM CH.

H9 hESCs = experiment: Activin A/BMP4 directed cardiac differentiation with GSK3 inhibitor pretreatment, cTnT flow cytometry; details: GSK3 inhibitor (1 μM) 3 days prior to Activin A and BMP4; day 15; average
Method: Cardiac directed differentiation using Activin A and BMP4: hPS cells maintained on Matrigel® in mTeSR1 were dissociated into single cells with Accutase (Invitrogen) at 37° C. for 5 min and then seeded onto a Matrigel®-coated cell culture dish at 100,000 cell/cm^2 in mTeSR1 supplemented with 5 μM ROCK inhibitor (Y-27632, Stemgent) (day −5). Cells were cultured in mTeSR1, changed daily. At day 0, cells were treated with 100 ng/ml Activin A (R&D) in RPMI/B27-insulin. After 24 hr, the medium was changed to RPMI/B27-insulin supplemented with 5 ng/ml BMP4 (R&D) for another 4 days. At day 5, the medium was changed with RPMI/B27-insulin. At day 7 the cells were transferred to RPMI/B27, and medim changed every 3 days. When using GSK3 inhibitors to stimulate differentiation, cells were cultured in mTeSR1 containing BIO or CHIR99021 from day −3 to day 0.
Flow Cytometry: Cells were dissociated into single cells and then fixed with 1% paraformaldehyde for 20 min at room temperature and stained with primary and secondary antibodies in PBS plus 0.1% Triton X-100 and 0.5% BSA. For the cell proliferation assay, a 17-hour pulse of BrdU was performed to identify dividing cardiomyocytes (Zhang et al., Circ. Res. 104, e30-41 (2009)). Data were collected on a FACSCaliber flow cytometer (Beckton Dickinson) and analyzed using FlowJo.
Undifferentiated H9 hESCs were cultured in the presence of 0-8 μM CH for three days prior to EB formation. EBs were cultured in suspension for 4 days before transferring to 0.1% gelatin coated plates. […] The inventors also applied the GSK3 inhibitors CH and BIO to undifferentiated H9 hESCs three days prior to directed differentiation to cardiomyocytes via Activin A and BMP4.

[2] = tested on: Smad1/5 and Smad2 phosphorylation in 19-9-11 ishcat cells; experiment: Smad1/5 and Smad2 phosphorylation, western blot; details: 12 μM CH treatment
Method: Western Blot Analysis: Cells were lysed in M-PER Mammalian Protein Extraction Reagent (Pierce) in the presence of Halt Protease and Phosphatase Inhibitor Cocktail (Pierce). Proteins were separated by 10% Tris-Glycine SDS/PAGE (Invitrogen) under denaturing conditions and transferred to a nitrocellulose membrane. After blocking with 5% milk in TBST, the membrane was incubated with primary antibody overnight at 4° C. The membrane was then washed, incubated with an anti-mouse/rabbit peroxidase-conjugated secondary antibody (1:1000, Cell Signaling) at room temperature for 1 hr, and developed by SuperSignal chemiluminescence (Pierce).
To determine whether canonical Wnt signaling requires TGFβ superfamily signaling to induce cardiogenesis, the inventors quantified cTnT+ cell generation in 19-9-11 ishcat-2 cells when Activin A and BMP4 signaling antagonists were presented during the first 24 hr of cardiomyocyte induction with 12 μM CH. All samples were treated with dox at 48 hours. […] To further investigate the role of TGFβ superfamily signaling in Wnt pathway-mediated cardiogenesis the inventors assessed Smad1/5 and Smad2 phosphorylation, downstream of BMP4 and Activin A signaling respectively. As expected, substantial Smad1/5 and Smad2 phosphorylation was detected in cells that had been treated with Activin A and BMP4 (FIGS. 9B and 10A).

[3] = tested on: 19-9-11 shcat-2 and scramble lines; experiment: RT-PCR/qPCR gene expression in CH-treated 19-9-11 shcat-2 and scramble lines
Method: RT-PCR and Quantitative RT-PCR: Total RNA was prepared with the RNeasy mini kit (QIAGEN) and treated with DNase (QIAGEN). 1 μg RNA was reverse transcribed into cDNA via Oligo (dT) with Superscript III Reverse Transcriptase (Invitrogen). Real-time quantitative PCR was done in triplicate with iQ SYBR Green SuperMix (Bio-Rad). RT-PCR was done with Gotaq Master Mix (Promega) and then subjected to 2% agarose gel electrophoresis. ACTB was used as an endogenous control. To test whether induction of cardiomyocyte differentiation by GSK3 inhibitors requires β-catenin, the inventors treated the shcat-2 and scramble 19-9-11 lines with CH in mTeSR1 medium. While the shcat-2 line maintained an undifferentiated morphology, the scramble line appeared to undergo differentiation (FIG. 2E), similar to non-transduced lines treated with CH (FIGS. 1B and 2B). Induction of differentiation following CH treatment in the scramble control was further indicated by diminished SOX2 and NANOG expression at day 4 (FIG. 3C). […] After 4 days of CH treatment in mTeSR1, the percentage of cells expressing Oct4 decreased to 61% in the scramble line, while 98% of the shcat-2 cells expressed Oct4 (FIG. 3D). […] To better understand early mesoderm induction via GSK3 inhibition, the inventors analyzed expression of the early mesoderm gene T in scramble and shcat-2 19-9-11 lines. As CH concentration increased, the ratio of T expression in scramble to the shcat-2 line increased (FIG. 3E). Less than 2% of shcat-2 cells expressed brachyury upon exposure to different concentrations of CH treatment for 4 days.

Cc1c[nH]c(-c2cnc(NCCNc3ccc(C#N)cn3)nc2-c2ccc(Cl)cc2Cl)n1 [CH]
H9-7TGP cells expressing GFP ([1]; 15 μM CH, 4 days post-addition): Approximately 50% | TCF/LEF promoter activity ([1]; H9-7TGP reporter line, CH in mTeSR1 for 4 days): activated TCF/LEF promoter activity in a CH concentration-dependent manner | cTNT-labeled cells (H9 hESCs): 50% | Smad1/5 and Smad2 activation [2]: levels comparable to those induced by Activin A and BMP4 | expression of mesendoderm and early mesoderm genes MIXL1, GSC, T, WNT3A and MSX1 ([3]; 12 μM CH for 4 days, scramble versus shcat-2): emerged in CH-treated scramble cells but not CH-treated shcat-2 cells | ratio of T expression in scramble to the shcat-2 line ([3]; increasing CH concentration, 2 days, qPCR): increased | SOX2 and NANOG expression ([3]; scramble control, CH treatment, day 4): diminished | SOX2 and NANOG expression ([3]; shcat-2 cells treated with CH): No significant differences
